Experimental data published in the supplement of paper PMC10307832.

Legend:
Test in all cases: relative viability (nuclei count vs DMSO), 5 days (fraction); higher = more cells survive
Seliciclib + Navitoclax = compound: CC[C@H](CO)Nc1nc(NCc2ccccc2)c2ncn(C(C)C)c2n1 [Seliciclib] + CC1(C)CCC(c2ccc(Cl)cc2)=C(CN2CCN(c3ccc(C(=O)NS(=O)(=O)c4ccc(N[C@H](CCN5CCOCC5)CSc5ccccc5)c(S(=O)(=O)C(F)(F)F)c4)cc3)CC2)C1 [Navitoclax] (partner 0.5 µM)
Procedure, shortened: (§1)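 Relative viability divides the nuclei count in treated wells by that in vehicle wells. Lung cancer cell lines were seeded in 1536-well plates, dosed by pin tool the next day, and fixed and stained after 5 days in one step with final 0.05% Triton X-100, 1% formaldehyde and 1 ug/ml Hoechst. Dosing was a single drug or a fixed anchor-drug dose plus five library-drug doses (not always all listed) in √10 steps, and values are medians of duplicate plates imaged at 4×.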

Seliciclib + Linsitinib = compound: CC[C@H](CO)Nc1nc(NCc2ccccc2)c2ncn(C(C)C)c2n1 [Seliciclib] + C[C@]1(O)C[C@@H](c2nc(-c3ccc4ccc(-c5ccccc5)nc4c3)c3c(N)nccn32)C1 [Linsitinib] (partner 1 µM)
Procedure, shortened: as §1

Seliciclib + Foretinib = compound: CC[C@H](CO)Nc1nc(NCc2ccccc2)c2ncn(C(C)C)c2n1 [Seliciclib] + COc1cc2c(Oc3ccc(NC(=O)C4(C(=O)Nc5ccc(F)cc5)CC4)cc3F)ccnc2cc1OCCCN1CCOCC1 [Foretinib] (partner 0.25 µM)
Procedure, shortened: as §1

Seliciclib + Luminespib = compound: CC[C@H](CO)Nc1nc(NCc2ccccc2)c2ncn(C(C)C)c2n1 [Seliciclib] + CCNC(=O)c1noc(-c2cc(C(C)C)c(O)cc2O)c1-c1ccc(CN2CCOCC2)cc1 [Luminespib] (partner 0.01 µM)
Procedure, shortened: as §1

Cell Line	relative viability (Seliciclib + Navitoclax; first compound 0.08 µM)	relative viability (Seliciclib + Navitoclax; first compound 0.253 µM)	relative viability (Seliciclib + Navitoclax; first compound 0.8 µM)	relative viability (Seliciclib + Navitoclax; first compound 2.53 µM)	relative viability (Seliciclib + Navitoclax; first compound 8 µM)	relative viability (Seliciclib + Linsitinib; first compound 0.08 µM)	relative viability (Seliciclib + Linsitinib; first compound 0.253 µM)	relative viability (Seliciclib + Linsitinib; first compound 0.8 µM)	relative viability (Seliciclib + Linsitinib; first compound 2.53 µM)	relative viability (Seliciclib + Linsitinib; first compound 8 µM)	relative viability (Seliciclib + Foretinib; first compound 0.08 µM)	relative viability (Seliciclib + Foretinib; first compound 0.253 µM)	relative viability (Seliciclib + Foretinib; first compound 0.8 µM)	relative viability (Seliciclib + Foretinib; first compound 2.53 µM)	relative viability (Seliciclib + Foretinib; first compound 8 µM)	relative viability (Seliciclib + Luminespib; first compound 0.08 µM)	relative viability (Seliciclib + Luminespib; first compound 0.253 µM)	relative viability (Seliciclib + Luminespib; first compound 0.8 µM)	relative viability (Seliciclib + Luminespib; first compound 2.53 µM)	relative viability (Seliciclib + Luminespib; first compound 8 µM)
HCC-366	1.01	0.699	1.03	1.17	0.947	0.538	0.448	0.557	0.836	0.36	0.917	0.97	0.786	0.93	0.762	–	–	–	–	–
HCC-827	1	1.03	1.01	0.976	0.953	0.927	1	0.892	0.919	0.845	1.01	1.04	0.968	0.972	0.925	0.519	0.589	0.55	0.829	0.588
HOP-62	1.01	1.1	0.909	1.12	0.926	1.04	0.935	0.891	0.834	0.879	1.17	1.18	1.1	1.17	0.993	0.863	0.933	0.919	1	0.851
IA-LM	0.738	1.15	0.732	0.772	0.72	0.644	0.793	0.602	0.709	0.611	1.18	1.48	1.04	1.1	0.925	–	–	–	–	–
LC-2-ad	0.419	0.505	0.379	0.494	0.271	0.884	0.94	0.756	0.827	0.607	0.949	0.966	0.865	0.747	0.852	0.895	1.02	0.988	0.985	0.834
LCLC-97TM1	0.324	0.462	0.414	–	0.223	0.162	0.181	0.205	–	0.18	0.936	0.952	0.961	0.793	0.72	0.843	0.81	0.449	0.684	0.469
LCLC-103H	–	–	–	–	–	1.17	0.973	1.02	1.02	0.849	0.812	0.878	0.708	0.739	0.589	1.02	0.958	0.763	0.993	0.774
LK-2	0.797	0.648	0.823	0.643	0.536	0.74	0.462	0.523	0.676	0.274	1.13	1.08	0.776	0.85	0.977	0.186	0.236	0.164	0.174	0.253
LOU-NH91	0.591	0.61	0.591	0.695	0.482	0.878	0.889	0.881	1.01	0.693	0.9	0.904	0.885	0.905	0.739	0.318	0.332	0.293	0.305	0.276
